Laboratory results published in ChEMBL document CHEMBL5042541 (J Med Chem, 2022).

Assays:
[1] = Lipophilicity, logD of compound at pH 7.5; assay type: physicochemical; details: buffer
Keap1/Nrf2 = Keap1/Nrf2 (Homo sapiens, UniProt Q14145)
Sequence of Keap1/Nrf2 (Q16236 whole entry): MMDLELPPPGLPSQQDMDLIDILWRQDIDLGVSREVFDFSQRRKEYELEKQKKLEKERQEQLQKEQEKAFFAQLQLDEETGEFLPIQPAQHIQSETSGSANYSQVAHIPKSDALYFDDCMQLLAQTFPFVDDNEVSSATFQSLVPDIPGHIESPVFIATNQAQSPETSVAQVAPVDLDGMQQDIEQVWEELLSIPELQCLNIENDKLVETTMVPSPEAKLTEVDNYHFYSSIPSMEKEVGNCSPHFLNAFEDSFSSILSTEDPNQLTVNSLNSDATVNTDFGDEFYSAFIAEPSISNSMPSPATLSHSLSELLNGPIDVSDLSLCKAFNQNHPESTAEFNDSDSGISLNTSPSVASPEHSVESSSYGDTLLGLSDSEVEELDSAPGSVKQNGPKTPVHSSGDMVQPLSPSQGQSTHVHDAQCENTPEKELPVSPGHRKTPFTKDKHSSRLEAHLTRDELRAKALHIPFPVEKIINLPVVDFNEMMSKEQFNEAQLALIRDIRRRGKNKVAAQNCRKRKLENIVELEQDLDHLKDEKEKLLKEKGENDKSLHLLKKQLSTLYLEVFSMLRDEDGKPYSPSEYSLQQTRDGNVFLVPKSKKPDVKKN
Sequence of Keap1/Nrf2 (Q14145 whole entry): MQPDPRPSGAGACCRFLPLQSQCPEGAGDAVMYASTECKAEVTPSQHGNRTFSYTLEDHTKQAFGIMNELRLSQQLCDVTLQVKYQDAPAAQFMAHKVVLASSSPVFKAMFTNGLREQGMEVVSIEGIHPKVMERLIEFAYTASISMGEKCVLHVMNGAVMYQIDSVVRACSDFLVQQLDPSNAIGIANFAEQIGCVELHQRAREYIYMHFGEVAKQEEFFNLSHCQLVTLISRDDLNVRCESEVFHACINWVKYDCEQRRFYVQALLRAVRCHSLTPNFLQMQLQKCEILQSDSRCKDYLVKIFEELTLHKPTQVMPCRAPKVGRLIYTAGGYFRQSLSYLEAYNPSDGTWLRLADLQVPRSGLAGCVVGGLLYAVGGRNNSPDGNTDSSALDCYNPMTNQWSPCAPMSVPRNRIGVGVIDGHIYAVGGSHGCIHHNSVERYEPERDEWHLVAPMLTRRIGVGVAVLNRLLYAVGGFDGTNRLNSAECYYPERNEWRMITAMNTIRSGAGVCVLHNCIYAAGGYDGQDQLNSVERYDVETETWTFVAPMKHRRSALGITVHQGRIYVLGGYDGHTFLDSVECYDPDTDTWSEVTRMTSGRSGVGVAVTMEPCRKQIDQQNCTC

| Kd (Keap1/Nrf2) [µM] | SMILES | logD [1] |
| --- | --- | --- |
| – | CC(=O)N1CCC[C@H]1C(=O)N[C@@H]1COC(=O)c2ccccc2CSC[C@H](C(=O)N(C)C)NC1=O | 0.43 |
| > 500 | CC(=O)N1CCC[C@H]1C(=O)N[C@@H]1CNC(=O)c2ccccc2COC[C@H](C(=O)N(C)C)NC1=O | – |
